*1 amine or outer side, *2 acyl side, *3 side chain or, on linkers, in order; H or OH if unused. Where a SMILES comes first, the peptide text is derived from it. Bridges are numbered along the chain shown (N, C = ends). [ ]: non-standard residue; d: D form. The star is where a group is joined. Leu(3R-OH,Nα-propionyl) = CCC(=O)N[C@H](C(=O)*)[C@H](O)C(C)C; X1 = CC(C)[C@@H](O[*:3])[C@H](N[*:1])C(=O)[*:2]; NMeT = CN[C@H](C(=O)O)[C@@H](C)O; dPhLac = O=C(O)[C@H](O)Cc1ccccc1; NMeA = CN[C@@H](C)C(=O)O; NMeDha = C=C(NC)C(=O)O
Assays:
Gαq-Q209L (GαqΔ34-Q209L) [1] = molecular target: T1, Gαq-Q209L (GαqΔ34-Q209L) (Mus musculus, UniProt P21279, Q209L); test: […]GTPγS radioligand filter binding
T1 sequence (P21279 35-359 Q209L): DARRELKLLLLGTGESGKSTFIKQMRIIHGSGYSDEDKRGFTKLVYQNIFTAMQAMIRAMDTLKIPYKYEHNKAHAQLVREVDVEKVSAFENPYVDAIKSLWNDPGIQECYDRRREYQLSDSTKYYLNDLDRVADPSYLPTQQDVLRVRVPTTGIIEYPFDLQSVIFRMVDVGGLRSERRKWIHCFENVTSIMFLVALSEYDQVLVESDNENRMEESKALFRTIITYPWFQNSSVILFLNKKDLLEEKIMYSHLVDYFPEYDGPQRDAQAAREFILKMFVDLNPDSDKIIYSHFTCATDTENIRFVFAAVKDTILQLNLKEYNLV

Gαq [2] = molecular target: T2, Gαq (Rattus norvegicus, UniProt P82471); test: […]GTPγS radioligand filter binding
T2 sequence (P82471 1-359): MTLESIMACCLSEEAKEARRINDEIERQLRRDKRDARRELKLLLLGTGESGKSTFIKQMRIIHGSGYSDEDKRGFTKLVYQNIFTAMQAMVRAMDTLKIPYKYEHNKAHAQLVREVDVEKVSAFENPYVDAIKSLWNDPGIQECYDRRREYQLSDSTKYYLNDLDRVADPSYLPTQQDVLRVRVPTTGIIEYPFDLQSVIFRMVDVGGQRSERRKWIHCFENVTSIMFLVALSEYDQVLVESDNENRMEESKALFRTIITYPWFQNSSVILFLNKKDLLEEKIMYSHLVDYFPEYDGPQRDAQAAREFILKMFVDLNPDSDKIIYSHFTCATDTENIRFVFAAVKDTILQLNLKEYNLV

Gαq-Q209L (GαqΔ34-Q209L) [3] = molecular target: T1, Gαq-Q209L (GαqΔ34-Q209L); test: […]GTPγS filter-binding assay with purified protein preincubated with FR; type: biochemical
Gαq [4] = molecular target: Gαq (Rattus norvegicus, UniProt P82471); test: as above; type: biochemical

Structure (SMILES) | [35S]GTPγS radioligand filter binding (Gαq-Q209L (GαqΔ34-Q209L) [1]) | [35S]GTPγS radioligand filter binding (Gαq [2]) | IC50 (Gαq-Q209L (GαqΔ34-Q209L) [3]) | IC50 (Gαq [4])
Nc1nc2c(ncn2[C@@H]2O[C@H](COP(=O)(O)OP(=O)(O)OP(O)(O)=S)[C@@H](O)[C@H]2O)c(=O)[nH]1 [GTPγS] | GTPγS binding of purified Gαq and Gαq-Q209L was measured using a filter-binding method | GTPγS binding of purified Gαq and Gαq-Q209L was measured using a filter-binding method |  | 
C=C1C(=O)N[C@@H](C)C(=O)N(C)[C@@H](C)C(=O)N[C@@H]([C@H](OC(=O)[C@@H](NC(=O)CC)[C@H](O)C(C)C)C(C)C)C(=O)N(C)[C@@H]([C@@H](C)OC)C(=O)O[C@H](C(C)C)[C@H](NC(C)=O)C(=O)O[C@H](Cc2ccccc2)C(=O)N1C [FR, FR900359] (Ac-[X1][dPhLac][NMeDha]A[NMeA][X1](Leu(3R-OH,Nα-propionyl))[NMeT](Me); ester 1-C) |  |  | ~75 nM | ~75 nM
